Data from PMC7927021 (Toxins, 2021).
“And” between values parts separate entries of the source, which are not always exact repeats. Equal values may be shown once.

Legend:
[1] = system: Caco-2 cells; type: cell-based, human
[2] = system: Caco-2 cells; type: cell-based, human; remark: listed apart in the source
[3] = parameters: method as in PMID 21699062; details: established by JECFA in 2011; cited from earlier work

## CC1=C[C@H]2O[C@@H]3[C@H](O)C[C@](C)([C@@]2(CO)[C@H](O)C1=O)[C@]31CO1 [DON, Deoxynivalenol]
[1]
  Concentration range in which viability was significantly/sharply reduced: 0.2 to 10 µM
  Concentration range of robust decrease in cell viability: 0.2 to 10 µM
[2]
  Number of KEGG pathways in which DEGs were enriched: 27
  Number of differentially expressed genes (DEGs): 2656
[3]
  PMTDI (Provisional Maximum Tolerable Daily Intake): 1 μg/kg bw per day

## CC(=O)O[C@@H]1C[C@]2(C)[C@@]3(CO)[C@H](O)C(=O)C(C)=C[C@H]3O[C@H]1[C@@]21CO1 [3-ADON, trichothec-9-en-8-one, 3-(acetyloxy)-12,13-epoxy-7,15-dihydroxy-, (3α,7α)]
[1]
  Concentration range in which viability was significantly/sharply reduced: 1 to 10 µM
  Concentration range of robust decrease in cell viability: 2 to 10 µM
  IC50: 13.2 µM and 10.8 µM and 7.84 µM
[2]
  Number of KEGG pathways in which DEGs were enriched: 42
  Number of differentially expressed genes (DEGs): 3132

## CC(=O)OC[C@]12[C@H](O)C(=O)C(C)=C[C@H]1O[C@@H]1[C@H](O)C[C@@]2(C)[C@]12CO2 [15-ADON, trichothec-9-en-8-one, 15-(acetyloxy)-12,13-epoxy-3,7-dihydroxy-, (3α,7α)]
[1]
  Concentration range in which viability was significantly/sharply reduced: 0.2 to 10 µM
  Concentration range of robust decrease in cell viability: 0.5 to 10 µM
[2]
  Number of KEGG pathways in which DEGs were enriched: 28
  Number of differentially expressed genes (DEGs): 2425
